# Experimental data from ChEMBL document CHEMBL4477248, “Blinded predictions of binding modes and energies of HSP90-α ligands for the 2015 D3R grand challenge” (Bioorg Med Chem, 2016).
# The source made the active and inactive calls. The calls are words filed in the database; no cut-off is given here.
# Molecular target: Heat shock protein HSP 90-alpha (Homo sapiens, UniProt P07900)
# Assay: Inhibition of HSP90alpha (unknown origin)
Compound,inhibition,IC50
CCOC(=O)CC1(C)Oc2ccccc2O1,inactive,
Cn1c2c([n+](C)c1CCl)C(=O)c1ccccc1C2=O,Active,
O=c1[nH]c2cc(CNS(=O)(=O)c3cccnc3)ccc2n1-c1cc(Cl)c(O)cc1O,,0.005 µM
CC(=O)Oc1ccc2c(=O)c(Cc3ccccc3)c(C)oc2c1OC(C)=O,Active,
CC(=O)Oc1ccc([N+](=O)[O-])c2ccccc12,inactive,
COc1cc(F)c(Cl)cc1C(=O)c1ccc(OCc2ccccc2)cc1,,> 1 µM
O=C1c2ccccc2C(=O)c2c1ccc1nonc21,Active,
O=C1c2ccccc2-c2ccccc21,,> 1 µM
COC(=O)c1cc(C(=O)c2ccc(OC)cc2)cc(C(=O)OC)c1OC,,> 1 µM
CCn1c(=O)n(-c2ccccc2OC)c2ccccc21,,> 1 µM
